Entries after “also recorded” stand apart in the source; their conditions may differ.
Key:
[1] = tested on: human PRP (Platelet Rich Plasma), platelet aggregation induced by ADP; assay: In vitro platelet antiaggregation activity (Born method, ADP-induced); assay type: cell-based
Experimental: The method described by Born (Nature, 194, 927, 1962) was followed for this test, based on the increase in the platelet aggregation induced by ADP. The experiment was conducted using a human PRP (Platelet Rich Plasma) pool from four healthy volunteers who had not taken any drugs for ten days. The PRP was adjusted to 280,000±20,000 and kept at ambient temperature for the entire duration of the test.
400 μl of PRP and 100 μl of MRAP2 dissolved in a physiological solution and adjusted to a pH of 7.4 were placed in plastic test tubes. Three doses of the drug in question (0.181, 0.904 and 1.818 mg/ml) were used.
Three dilutions of aspirin were prepared under the same conditions for use as a comparison drug. Two minutes after contact between the drug and PRP, the test tube was inserted into the aggregometer cell (EEI, Model 169 with Corning Recorder Mod.840). After 60 seconds, ADP (10^-3 mM) was added and the aggregation was recorded. In calculating the antiaggregation activity, reference was made to the maximum amplitude of the aggregation curved obtained with ADP. Assuming this amplitude to be 100, the amplitudes of the curves obtained with the various doses of MRAP2 and aspirin were calculated as a percentage.

stomach (gastric lesion) = assay: Ulcerogenic activity in rats after a single administration; assay type: in vivo, male albino rats, Wistar strain; conditions: rats; for Average degree of lesion + E.E.: scale 0-7, controls 0.65 ± 0.1
Experimental: The ulcerogenic activity of MRAP2 was tested both after a single administration of the drug, and after prolonged administration.
In these tests, a total of 70 male albino rats of Wistar strain were used, having a weight of 200±20 grams.
The MRAP2 was administered diluted in tap water.
40 rats, fasted for 18 hours before the experiment, were divided into four batches of ten animals and treated orally as follows:
3rd group: MRAP2 (50 mg/kg)
4th group: MRAP2 (125 mg/kg).
The animals were killed after six hours. The stomach was withdrawn and the gastric lesion index was evaluated in terms of an arbitrary scale of values lying between 0. and 7 based on previous models proposed by other authors.
Furthermore, the treatment was randomised in order to eliminate any possible polarisation of the data.
The points given for gastric ulcerative lesions were as follows:
(1) hyperaemia or slight capillary obstruction; or slight loss of the epithelium; or some petechiae even with pale mucosa without hyperaemia;
(2) diffuse capillary obstructions or numerous petechiae; or diffuse loss of the epithelium; of a few surface lesions;
(3) strong submucosa haemorrhage; or many petechiae and small surface lesions; or much anaemic mucosa (yellowish colour); or up to three small ulcers;
(4) general pattern as in the previous numbers, plus up to ten small ulcers; or long erosions; or up to three medium sized ulcers;
(5) pattern as in number 4, with up to 15 small ulcers; or up to 6 large ulcers;
(6) pattern as previously, with up to ten large ulcers, plus small ulcers;
(7) pattern as previously, plus up to ten large ulcers and small ulcers; cases of perforated ulcers.

platelet aggregation = assay: In vivo platelet antiaggregation activity; set-up: species or system male rats, Wistar strain; conditions: rats
Experimental: This experiment was carried out on male rats of the Wistar strain having a weight of 320±20 grams. Both the MRAP2 and the aspirin (used as a comparison drug) were dissolved in a physiological solution, and the solutions, adjusted to pH 7.4, were administered orally in doeses of 3 mg/kg to two groups of three rats each. […] The concentration of the solution was adjusted to contain 100 mg of MRAP2 per ml. Blood samples were drawn from each animal 72 and 120 hours after treatment, for checking the platelet aggregation. In calculating the activity, the previous method was used (the average of the three maximum amplitudes of the curves obtained with the untreated rats was given the control figure of 100%).

[2] = Acute toxicity in rats, endoperitoneal administration (LD50); assay type: in vivo; conditions: rat, in vivo, ip
Experimental: (§1) 200 albino rats, 100 male and 100 female, of the Wistar strain and weighing 130-150 grams were divided into groups of 10 animals each.
(§2) After being caged for some days at constant temperature (21°±1° C.) and humidity (60±5%), the animals were fasted for 24 hours before treatment.
(§3) The MRAP2 was administered in a single administration either orally or endoperitoneally, following the method heretofore described.
(§4) Teh LD50 was evaluated for each method of administration using the Litchfield and Wilcoxon method, based on the percentage mortality recorded in each group of rats during the seven days following treatment.
(§5) Five groups of 20 animals, 10 male and 10 female were used.

rats = assay: as above; assay type: in vivo; conditions: 20 animals per dose
Experimental: as §1, §2, §3, §4, §5

[3] = Acute toxicity in mice, oral administration (LD50); assay type: in vivo; conditions: mouse, in vivo
Experimental: (§6) A total of 240 albino mice, 120 male and 120 female, of the Swiss strain and having an average weight of about 20 grams were used. The animals were divided into groups of 10 animals each, and kept caged for some days in an environment at a constant temperature (21°±1° C.) and humidity (60±5%). They were then fasted for 24 hours before the experiment, but were given free access to water.
(§7) The substance indicated by MRAP2 was administered, in a single administration, either orally or endoperitoneally. The LD50 was evaluated for each of the administration methods, using the method of Litchfield and Wilcoxon, J.Pharmacology, 96, 99, […], based on the mortality recorded for each group of mice over the seven days following administration.
(§8) Six groups of 20 animals, 10 male and 10 female, which had been given MRAP2 dissolved in tap water were used, the method utilised being gastric catheterisation.

mice = assay: Acute toxicity in mice, oral administration (LD50); assay type: in vivo; conditions: 20 animals per dose
Experimental: as §6, §7, §8

SMILES: Cl.Clc1ccccc1CN1CCCC1 [MRAP2, N-(2-chlorobenzyl)-pyrrolidine hydrochloride]
- inhibition of platelet aggregation at 181 µg/mL ([1]; Platelet, ADP 10^-3 mM, drug 0.181 mg/ml): 26%
- activity at 181 µg/mL ([1]; Platelet, ADP 10^-3 mM, drug 0.181 mg/ml, serum + ADP = 100): 74%
- inhibition of platelet aggregation at 904 µg/mL ([1]; Platelet, ADP 10^-3 mM, drug 0.904 mg/ml): 91%
- activity at 904 µg/mL ([1]; Platelet, ADP 10^-3 mM, drug 0.904 mg/ml, serum + ADP = 100): 9%
- inhibition of platelet aggregation at 1818 µg/mL ([1]; Platelet, ADP 10^-3 mM, drug 1.818 mg/ml): 92%
- activity at 1818 µg/mL ([1]; Platelet, ADP 10^-3 mM, drug 1.818 mg/ml, serum + ADP = 100): 8%
- platelet antiaggregation activity (in words) ([1]; in vitro, ADP, manifested by the dose of 0.904 mg/ml, comparison with aspirin, hydrochloride): considerable platelet antiaggregation activity; also recorded: clearly superior to that possessed by aspirin
- Average degree of lesion + E.E. (stomach (gastric lesion); single oral 50 mg/kg): 0.80 ± 0.1
- Average degree of lesion + E.E. (stomach (gastric lesion); single oral 125 mg/kg, P <0.05 with regard to controls): 1.15 ± 0.2
- incidence of ulcerative lesions (in words) (stomach (gastric lesion); single oral administration, relative to control animals): almost identical or slightly greater than that of the control animals
- antiaggregation activity in vivo (in words) (platelet aggregation; oral 3 mg/kg, comparison with aspirin): superior to that of aspirin
- % platelet antiaggregation activity on day 3 (platelet aggregation; single oral dose 3 mg/kg, day 3 (72 hours)): 38%
- % platelet aggregation on day 3 (platelet aggregation; single oral dose 3 mg/kg, day 3 (72 hours), controls = 100): 62%
- % platelet antiaggregation activity on day 5 (platelet aggregation; single oral dose 3 mg/kg, day 5 (120 hours)): 37%
- % platelet aggregation on day 5 (platelet aggregation; single oral dose 3 mg/kg, day 5 (120 hours), controls = 100): 63%
- mortality at 168 h ([2]; 50 mg/kg): 0%
- mortality at 168 h ([2]; 100 mg/kg): 5%
- mortality at 168 h ([2]; 200 mg/kg): 55%
- mortality at 168 h ([2]; 300 mg/kg): 85%
- mortality at 168 h ([2]; 400 mg/kg): 100%
- LD50 at 168 h ([2]; single administration, 7 days, 95% limits 174-203): 188 mg/kg
- No. of animals dead (rats; 50 mg/kg): 0
- No. of animals dead (rats; 100 mg/kg): 1
- No. of animals dead (rats; 200 mg/kg): 11
- No. of animals dead (rats; 300 mg/kg): 17
- No. of animals dead (rats; 400 mg/kg): 20
- mortality at 168 h ([3]; 300 mg/kg): 0%
- mortality at 168 h ([3]; 400 mg/kg): 20%
- mortality at 168 h ([3]; 500 mg/kg): 45%
- mortality at 168 h ([3]; 600 mg/kg): 60%
- mortality at 168 h ([3]; 800 mg/kg): 100%
- mortality at 168 h ([3]; 1000 mg/kg): 100%
- LD50 at 168 h ([3]; single administration, 7 days, 95% limits 515-561): 536 mg/kg
- No. of animals dead (mice; 300 mg/kg): 0
- No. of animals dead (mice; 400 mg/kg): 4
- No. of animals dead (mice; 500 mg/kg): 9
- No. of animals dead (mice; 600 mg/kg): 12
- No. of animals dead (mice; 800 mg/kg): 20
- No. of animals dead (mice; 1000 mg/kg): 20
